Key:
Paclitaxel = compound: CC(=O)O[C@H]1C(=O)[C@@]2(C)[C@H]([C@H](OC(=O)c3ccccc3)[C@]3(O)C[C@H](OC(=O)[C@H](O)[C@@H](NC(=O)c4ccccc4)c4ccccc4)C(C)=C1C3(C)C)[C@]1(OC(C)=O)CO[C@@H]1C[C@@H]2O [Paclitaxel]
BSJ-03-123 [1] = compound: T1, CC(=O)c1c(C)c2cnc(Nc3ccc(N4CCN(CCOCCOCCOCCNC(=O)COc5cccc6c5C(=O)N(C5CCC(=O)NC5=O)C6=O)CC4)cn3)nc2n(C2CCCC2)c1=O [BSJ-03-123]
INK128/MLN0128 = compound: CC(C)n1nc(-c2ccc3oc(N)nc3c2)c2c(N)ncnc21 [INK128/MLN0128]
[2] = compound: CCN1CCN(Cc2ccc(Nc3ncc(F)c(-c4cc(F)c5nc(C)n(C(C)C)c5c4)n3)nc2)CC1
Neratinib/HKI272 [3] = compound: T2, CCOc1cc2ncc(C#N)c(Nc3ccc(OCc4ccccn4)c(Cl)c3)c2cc1NC(=O)/C=C/CN(C)C [Neratinib/HKI272]
Volasertib/BI6727 = compound: CC[C@@H]1C(=O)N(C)c2cnc(Nc3ccc(C(=O)N[C@H]4CC[C@H](N5CCN(CC6CC6)CC5)CC4)cc3OC)nc2N1C(C)C [Volasertib/BI6727]
LEE011/Ribociclib [4] = compound: T3, CN(C)C(=O)c1cc2cnc(Nc3ccc(N4CCNCC4)cn3)nc2n1C1CCCC1 [LEE011/Ribociclib]
THZ531 = compound: CN(C)C/C=C/C(=O)Nc1ccc(C(=O)N2CCC[C@@H](Nc3ncc(Cl)c(-c4c[nH]c5ccccc45)n3)C2)cc1 [THZ531]
ABT-737 = compound: CN(C)CC[C@H](CSc1ccccc1)Nc1ccc(S(=O)(=O)NC(=O)c2ccc(N3CCN(Cc4ccccc4-c4ccc(Cl)cc4)CC3)cc2)cc1[N+](=O)[O-] [ABT-737]
[5] = compound: COc1ccc2c(c1)[C@]1(C[C@H]1c1ccc3c(/C=C/c4ccc(CN5C[C@@H](C)O[C@@H](C)C5)cc4)n[nH]c3c1)C(=O)N2
Pictilisib/GDC0941 = compound: CS(=O)(=O)N1CCN(Cc2cc3nc(-c4cccc5[nH]ncc45)nc(N4CCOCC4)c3s2)CC1 [Pictilisib/GDC0941]
Ceritinib/LDK378 = compound: Cc1cc(Nc2ncc(Cl)c(Nc3ccccc3S(=O)(=O)C(C)C)n2)c(OC(C)C)cc1C1CCNCC1 [Ceritinib/LDK378]
Taselisib/GDC0032 = compound: Cc1nc(-c2cn3c(n2)-c2ccc(-c4cnn(C(C)(C)C(N)=O)c4)cc2OCC3)n(C(C)C)n1 [Taselisib/GDC0032]
Tivantinib/ARQ197 = compound: O=C1NC(=O)[C@@H](c2cn3c4c(cccc24)CCC3)[C@@H]1c1c[nH]c2ccccc12 [Tivantinib/ARQ197]
YKL-5-124 = compound: C=CC(=O)Nc1ccc(C(=O)Nc2[nH]nc3c2CN(C(=O)N[C@H](CN(C)C)c2ccccc2)C3(C)C)cc1 [YKL-5-124]; test: GR value, 72 h; higher = faster growth (1 = untreated, <0 = killing);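 also: breast cancer and non-malignant breast epithelial lines, nine half-log doses, viable cells counted by Hoechst and LIVE/DEAD dye imaging versus time-zero plates and DMSO controls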
BSJ-03-123 [6] = compound: T1, BSJ-03-123; test: as above
[7] = compound: CCN1CCN(Cc2ccc(Nc3ncc(F)c(-c4cc(F)c5nc(C)n(C(C)C)c5c4)n3)nc2)CC1; test: as above
Neratinib/HKI272 [8] = compound: T2, Neratinib/HKI272; test: as above
[9] = compound: CCc1cnn2c(NCc3ccc[n+]([O-])c3)cc(N3CCCC[C@H]3CCO)nc12; test: as above
LEE011/Ribociclib [10] = compound: T3, LEE011/Ribociclib; test: as above
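For GR50, 72 h in this document: breast cancer and non-malignant breast epithelial cell lines, Deep Dye Drop or Dye Drop imaging, nine half-log doses, GR normalized to time-zero plates and DMSO-only controls.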

CAL120
GR50, 72 h (Paclitaxel): 0.00288 µM | GR50, 72 h (BSJ-03-123 [1]): 5.27 µM | GR50, 72 h (INK128/MLN0128): 0.0115 µM | GR50, 72 h [2]: 0.247 µM | GR50, 72 h (Neratinib/HKI272 [3]): 0.585 µM | GR50, 72 h (Volasertib/BI6727): 0.00185 µM | GR50, 72 h (LEE011/Ribociclib [4]): > 10 µM | GR50, 72 h (THZ531): 0.15 µM | GR50, 72 h (ABT-737): 2.15 µM | GR50, 72 h [5]: 0.00365 µM | GR50, 72 h (Pictilisib/GDC0941): 2.07 µM | GR50, 72 h (Ceritinib/LDK378): 0.799 µM | GR50, 72 h (Taselisib/GDC0032): 2.53 µM | GR50, 72 h (Tivantinib/ARQ197): 0.251 µM | GR value (YKL-5-124; 0.001 µM): 0.776 GR | GR value (YKL-5-124; 0.003162 µM): 0.599 GR | GR value (YKL-5-124; 0.01 µM): 0.467 GR | GR value (YKL-5-124; 0.03162 µM): 0.385 GR | GR value (YKL-5-124; 0.1 µM): 0.377 GR | GR value (YKL-5-124; 0.3162 µM): 0.313 GR | GR value (YKL-5-124; 1 µM): 0.328 GR | GR value (YKL-5-124; 3.162 µM): 0.324 GR | GR value (YKL-5-124; 10 µM): 0.187 GR | GR value (BSJ-03-123 [6]; 0.001 µM): 0.923 GR | GR value (BSJ-03-123 [6]; 0.003162 µM): 0.923 GR | GR value (BSJ-03-123 [6]; 0.01 µM): 0.969 GR | GR value (BSJ-03-123 [6]; 0.03162 µM): 0.906 GR | GR value (BSJ-03-123 [6]; 0.1 µM): 0.861 GR | GR value (BSJ-03-123 [6]; 0.3162 µM): 0.9 GR | GR value (BSJ-03-123 [6]; 1 µM): 0.755 GR | GR value (BSJ-03-123 [6]; 3.162 µM): 0.759 GR | GR value (BSJ-03-123 [6]; 10 µM): 0.234 GR | GR value ([7]; 0.001 µM): 0.93 GR | GR value ([7]; 0.003162 µM): 0.85 GR | GR value ([7]; 0.01 µM): 0.715 GR | GR value ([7]; 0.03162 µM): 0.659 GR | GR value ([7]; 0.1 µM): 0.609 GR | GR value ([7]; 0.3162 µM): 0.594 GR | GR value ([7]; 1 µM): 0.377 GR | GR value ([7]; 3.162 µM): -0.0553 GR | GR value ([7]; 10 µM): -0.138 GR | GR value (Neratinib/HKI272 [8]; 0.0003162 µM): 0.996 GR | GR value (Neratinib/HKI272 [8]; 0.001 µM): 1.03 GR | GR value (Neratinib/HKI272 [8]; 0.003162 µM): 0.97 GR | GR value (Neratinib/HKI272 [8]; 0.01 µM): 0.973 GR | GR value (Neratinib/HKI272 [8]; 0.03162 µM): 0.999 GR | GR value (Neratinib/HKI272 [8]; 0.1 µM): 0.876 GR | GR value (Neratinib/HKI272 [8]; 0.3162 µM): 0.618 GR | GR value (Neratinib/HKI272 [8]; 1 µM): 0.355 GR | GR value (Neratinib/HKI272 [8]; 3.162 µM): -0.262 GR | GR value ([9]; 0.0001 µM): 1.01 GR | GR value ([9]; 0.0003162 µM): 0.995 GR | GR value ([9]; 0.001 µM): 1.03 GR | GR value ([9]; 0.003162 µM): 1.01 GR | GR value ([9]; 0.01 µM): 0.495 GR | GR value ([9]; 0.03162 µM): -0.0996 GR | GR value ([9]; 0.1 µM): -0.125 GR | GR value ([9]; 0.3162 µM): -0.129 GR | GR value ([9]; 1 µM): -0.116 GR | GR value (LEE011/Ribociclib [10]; 0.001 µM): 0.879 GR | GR value (LEE011/Ribociclib [10]; 0.003162 µM): 0.818 GR | GR value (LEE011/Ribociclib [10]; 0.01 µM): 0.765 GR | GR value (LEE011/Ribociclib [10]; 0.03162 µM): 0.809 GR | GR value (LEE011/Ribociclib [10]; 0.1 µM): 0.703 GR | GR value (LEE011/Ribociclib [10]; 0.3162 µM): 0.732 GR | GR value (LEE011/Ribociclib [10]; 1 µM): 0.646 GR | GR value (LEE011/Ribociclib [10]; 3.162 µM): 0.631 GR | GR value (LEE011/Ribociclib [10]; 10 µM): 0.664 GR

MDAMB453
GR50, 72 h (Paclitaxel): 0.00247 µM | GR50, 72 h (BSJ-03-123 [1]): 1.8 µM | GR50, 72 h (INK128/MLN0128): 0.00996 µM | GR50, 72 h [2]: 0.00577 µM | GR50, 72 h (Neratinib/HKI272 [3]): 0.0361 µM | GR50, 72 h (Volasertib/BI6727): 0.00726 µM | GR50, 72 h (LEE011/Ribociclib [4]): 0.0388 µM | GR50, 72 h (THZ531): 0.0236 µM | GR50, 72 h (ABT-737): 5.97 µM | GR50, 72 h [5]: 0.00348 µM | GR50, 72 h (Pictilisib/GDC0941): 0.455 µM | GR50, 72 h (Ceritinib/LDK378): 0.37 µM | GR50, 72 h (Taselisib/GDC0032): 0.00346 µM | GR50, 72 h (Tivantinib/ARQ197): 0.201 µM | GR value (YKL-5-124; 0.001 µM): 0.574 GR | GR value (YKL-5-124; 0.003162 µM): 0.333 GR | GR value (YKL-5-124; 0.01 µM): 0.209 GR | GR value (YKL-5-124; 0.03162 µM): 0.209 GR | GR value (YKL-5-124; 0.1 µM): 0.143 GR | GR value (YKL-5-124; 0.3162 µM): 0.0956 GR | GR value (YKL-5-124; 1 µM): 0.128 GR | GR value (YKL-5-124; 3.162 µM): 0.143 GR | GR value (YKL-5-124; 10 µM): -0.503 GR | GR value (BSJ-03-123 [6]; 0.001 µM): 0.989 GR | GR value (BSJ-03-123 [6]; 0.003162 µM): 0.922 GR | GR value (BSJ-03-123 [6]; 0.01 µM): 0.874 GR | GR value (BSJ-03-123 [6]; 0.03162 µM): 0.843 GR | GR value (BSJ-03-123 [6]; 0.1 µM): 0.841 GR | GR value (BSJ-03-123 [6]; 0.3162 µM): 0.699 GR | GR value (BSJ-03-123 [6]; 1 µM): 0.639 GR | GR value (BSJ-03-123 [6]; 3.162 µM): 0.575 GR | GR value (BSJ-03-123 [6]; 10 µM): -0.011 GR | GR value ([7]; 0.001 µM): 0.908 GR | GR value ([7]; 0.003162 µM): 0.615 GR | GR value ([7]; 0.01 µM): 0.211 GR | GR value ([7]; 0.03162 µM): 0.0514 GR | GR value ([7]; 0.1 µM): 0.0343 GR | GR value ([7]; 0.3162 µM): 0.0775 GR | GR value ([7]; 1 µM): 0.0548 GR | GR value ([7]; 3.162 µM): 0.0127 GR | GR value ([7]; 10 µM): -0.787 GR | GR value (Neratinib/HKI272 [8]; 0.0003162 µM): 0.988 GR | GR value (Neratinib/HKI272 [8]; 0.001 µM): 0.937 GR | GR value (Neratinib/HKI272 [8]; 0.003162 µM): 0.825 GR | GR value (Neratinib/HKI272 [8]; 0.01 µM): 0.596 GR | GR value (Neratinib/HKI272 [8]; 0.03162 µM): 0.44 GR | GR value (Neratinib/HKI272 [8]; 0.1 µM): 0.366 GR | GR value (Neratinib/HKI272 [8]; 0.3162 µM): 0.139 GR | GR value (Neratinib/HKI272 [8]; 1 µM): -0.0602 GR | GR value (Neratinib/HKI272 [8]; 3.162 µM): -0.339 GR | GR value ([9]; 0.0001 µM): 1.05 GR | GR value ([9]; 0.0003162 µM): 1.06 GR | GR value ([9]; 0.001 µM): 1.04 GR | GR value ([9]; 0.003162 µM): 1.03 GR | GR value ([9]; 0.01 µM): 0.645 GR | GR value ([9]; 0.03162 µM): -0.173 GR | GR value ([9]; 0.1 µM): -0.28 GR | GR value ([9]; 0.3162 µM): -0.238 GR | GR value ([9]; 1 µM): -0.242 GR | GR value (LEE011/Ribociclib [10]; 0.001 µM): 0.717 GR | GR value (LEE011/Ribociclib [10]; 0.003162 µM): 0.647 GR | GR value (LEE011/Ribociclib [10]; 0.01 µM): 0.562 GR | GR value (LEE011/Ribociclib [10]; 0.03162 µM): 0.637 GR | GR value (LEE011/Ribociclib [10]; 0.1 µM): 0.461 GR | GR value (LEE011/Ribociclib [10]; 0.3162 µM): 0.365 GR | GR value (LEE011/Ribociclib [10]; 1 µM): 0.273 GR | GR value (LEE011/Ribociclib [10]; 3.162 µM): 0.225 GR | GR value (LEE011/Ribociclib [10]; 10 µM): 0.208 GR

Source: the supplement of paper PMC9663587
